In publication PMC9284491 (Nature Communications, 2022):

Experiment: Treatment-emergent adverse events (MedDRA, NCI-CTCAE v4.03), safety populations
Type: in vivo, human
Experimental: Overall safety in Parts A and B was assessed by tabulating TEAEs, coded using the Medical Dictionary for Regulatory Activities (MedDRA) version 22.1, and graded according to NCI-CTCAE v4.03 criteria. TEAEs were classified as related or unrelated to amcenestrant therapy based upon the local investigating physician’s clinical judgment. The safety population included all patients exposed to at least one dose of the study treatment. Results were analyzed using descriptive statistics.

## O=C(O)c1ccc2c(c1)CCCC(c1ccc(Cl)cc1Cl)=C2c1ccc(O[C@H]2CCN(CCCF)C2)cc1 [amcenestrant, 6-(2,4-Dichlorophenyl)−5-[4-[(3S)−1-(3-fluoropropyl)pyrrolidin-3-yl]oxyphenyl]−8,9-dihydro-7H-benzo[7]annulene-2-carboxylic acid]
300 mg BID, 6 participants
  TEAE diarrhea: 3 n
  participants with at least 1 TEAE regardless of relationship: 6 participants
Part A
  TEAE leading to treatment discontinuation: No TEAE led to treatment discontinuation
Part A (n = 16)
  treatment-related TEAE asthenia, patients: 18.8%
  treatment-related TEAE constipation, patients: 18.8%
  treatment-related TEAE decreased appetite, patients: 18.8%
  treatment-related TEAE diarrhea, patients: 25.0%
  treatment-related TEAE hot flush, patients: 31.3%
  treatment-related TEAE nausea, patients: 25.0%
  treatment-related TEAE night sweats, patients: 18.8%
Part A, 20-600 mg QD (N = 16)
  Any TEAE, TEAEs, All grades: 16 (100) n (%)
  Any TEAE, TEAEs, Grade 1: 5 (31.3) n (%)
  Any TEAE, TEAEs, Grade 2: 7 (43.8) n (%)
  Any TEAE, TEAEs, Grade ≥3: 4 (25.0) n (%)
  Any TEAE, Treatment-related TEAEs, All Grades: 13 (81.3) n (%)
  Any TEAE, Treatment-related TEAEs, Grade 1: 10 (62.5) n (%)
  Any TEAE, Treatment-related TEAEs, Grade 2: 3 (18.8) n (%)
  Any TEAE, Treatment-related TEAEs, Grade ≥3: 0 n (%)
  Arthralgia, TEAEs, All grades: 5 (31.3) n (%)
  Arthralgia, TEAEs, Grade 1: 2 (12.5) n (%)
  Arthralgia, TEAEs, Grade 2: 3 (18.8) n (%)
  Arthralgia, TEAEs, Grade ≥3: 0 n (%)
  Arthralgia, Treatment-related TEAEs, All Grades: 2 (12.5) n (%)
  Arthralgia, Treatment-related TEAEs, Grade 1: 1 (6.3) n (%)
  Arthralgia, Treatment-related TEAEs, Grade 2: 1 (6.3) n (%)
  Arthralgia, Treatment-related TEAEs, Grade ≥3: 0 n (%)
  Asthenia, TEAEs, All grades: 4 (25.0) n (%)
  Asthenia, TEAEs, Grade 1: 2 (12.5) n (%)
  Asthenia, TEAEs, Grade 2: 2 (12.5) n (%)
  Asthenia, TEAEs, Grade ≥3: 0 n (%)
  Asthenia, Treatment-related TEAEs, All Grades: 3 (18.8) n (%)
  Asthenia, Treatment-related TEAEs, Grade 1: 3 (18.8) n (%)
  Asthenia, Treatment-related TEAEs, Grade 2: 0 n (%)
  Asthenia, Treatment-related TEAEs, Grade ≥3: 0 n (%)
  Back pain, TEAEs, All grades: 3 (18.8) n (%)
  Back pain, TEAEs, Grade 1: 2 (12.5) n (%)
  Back pain, TEAEs, Grade 2: 0 n (%)
  Back pain, TEAEs, Grade ≥3: 1 (6.3) n (%)
  Back pain, Treatment-related TEAEs, All Grades: 1 (6.3) n (%)
  Back pain, Treatment-related TEAEs, Grade 1: 1 (6.3) n (%)
  Back pain, Treatment-related TEAEs, Grade 2: 0 n (%)
  Back pain, Treatment-related TEAEs, Grade ≥3: 0 n (%)
  Constipation, TEAEs, All grades: 6 (37.5) n (%)
  Constipation, TEAEs, Grade 1: 5 (31.3) n (%)
  Constipation, TEAEs, Grade 2: 1 (6.3) n (%)
  Constipation, TEAEs, Grade ≥3: 0 n (%)
  Constipation, Treatment-related TEAEs, All Grades: 3 (18.8) n (%)
  Constipation, Treatment-related TEAEs, Grade 1: 3 (18.8) n (%)
  Constipation, Treatment-related TEAEs, Grade 2: 0 n (%)
  Constipation, Treatment-related TEAEs, Grade ≥3: 0 n (%)
  Decreased appetite, TEAEs, All grades: 6 (37.5) n (%)
  Decreased appetite, TEAEs, Grade 1: 6 (37.5) n (%)
  Decreased appetite, TEAEs, Grade 2: 0 n (%)
  Decreased appetite, TEAEs, Grade ≥3: 0 n (%)
  Decreased appetite, Treatment-related TEAEs, All Grades: 3 (18.8) n (%)
  Decreased appetite, Treatment-related TEAEs, Grade 1: 3 (18.8) n (%)
  Decreased appetite, Treatment-related TEAEs, Grade 2: 0 n (%)
  Decreased appetite, Treatment-related TEAEs, Grade ≥3: 0 n (%)
  Diarrhea, TEAEs, All grades: 6 (37.5) n (%)
  Diarrhea, TEAEs, Grade 1: 5 (31.3) n (%)
  Diarrhea, TEAEs, Grade 2: 1 (6.3) n (%)
  Diarrhea, TEAEs, Grade ≥3: 0 n (%)
  Diarrhea, Treatment-related TEAEs, All Grades: 4 (25.0) n (%)
  Diarrhea, Treatment-related TEAEs, Grade 1: 3 (18.8) n (%)
  Diarrhea, Treatment-related TEAEs, Grade 2: 1 (6.3) n (%)
  Diarrhea, Treatment-related TEAEs, Grade ≥3: 0 n (%)
  Dyspnea, TEAEs, All grades: 4 (25.0) n (%)
  Dyspnea, TEAEs, Grade 1: 2 (12.5) n (%)
  Dyspnea, TEAEs, Grade 2: 1 (6.3) n (%)
  Dyspnea, TEAEs, Grade ≥3: 1 (6.3) n (%)
  Dyspnea, Treatment-related TEAEs, All Grades: 1 (6.3) n (%)
  Dyspnea, Treatment-related TEAEs, Grade 1: 1 (6.3) n (%)
  Dyspnea, Treatment-related TEAEs, Grade 2: 0 n (%)
  Dyspnea, Treatment-related TEAEs, Grade ≥3: 0 n (%)
  Fatigue, TEAEs, All grades: 4 (25.0) n (%)
  Fatigue, TEAEs, Grade 1: 3 (18.8) n (%)
  Fatigue, TEAEs, Grade 2: 0 n (%)
  Fatigue, TEAEs, Grade ≥3: 1 (6.3) n (%)
  Fatigue, Treatment-related TEAEs, All Grades: 2 (12.5) n (%)
  Fatigue, Treatment-related TEAEs, Grade 1: 2 (12.5) n (%)
  Fatigue, Treatment-related TEAEs, Grade 2: 0 n (%)
  Fatigue, Treatment-related TEAEs, Grade ≥3: 0 n (%)
  Hot flush, TEAEs, All grades: 6 (37.5) n (%)
  Hot flush, TEAEs, Grade 1: 6 (37.5) n (%)
  Hot flush, TEAEs, Grade 2: 0 n (%)
  Hot flush, TEAEs, Grade ≥3: 0 n (%)
  Hot flush, Treatment-related TEAEs, All Grades: 5 (31.3) n (%)
  Hot flush, Treatment-related TEAEs, Grade 1: 5 (31.3) n (%)
  Hot flush, Treatment-related TEAEs, Grade 2: 0 n (%)
  Hot flush, Treatment-related TEAEs, Grade ≥3: 0 n (%)
  Hypoesthesia, TEAEs, All grades: 3 (18.8) n (%)
  Hypoesthesia, TEAEs, Grade 1: 3 (18.8) n (%)
